Measured values from ChEMBL document CHEMBL5365464, “Structure-Based Optimization of the Third Generation Type II Macrocycle TRK Inhibitors with Improved Activity against Solvent-Front, xDFG, and Gatekeeper Mutations” (J Med Chem, 2023).
pIC50: −log10 of the molar value.

What was measured:
[1] = AUC (0 to t) in ICR mouse at 10 mg/kg, po measured upto 24 hrs by LC-MS/MS analysis; format: ADME, organism-based; parameters: time < 24 hrs, dose 10 mg/kg, route po; conditions: in vivo
[2] = molecular target: Ephrin type-A receptor 7 (Homo sapiens, UniProt Q15375); assay: Inhibition of EphA7 (unknown origin)
[3] = molecular target: Vascular endothelial growth factor receptor 3 (Homo sapiens, UniProt P35916); assay: Inhibition of FLT4 (unknown origin)
[4] = AUC (0 to infinity) in ICR mouse at 10 mg/kg, po measured upto 24 hrs by LC-MS/MS analysis; format: ADME, organism-based; parameters: dose 10 mg/kg, time < 24 hrs, route po; conditions: in vivo
[5] = AUC (0 to t) in ICR mouse at 2.0 mg/kg, iv measured upto 24 hrs by LC-MS/MS analysis; format: ADME, organism-based; parameters: time < 24 hrs, dose 2 mg/kg, route iv; conditions: in vivo
[6] = molecular target: Ephrin type-A receptor 5 (Homo sapiens, UniProt P54756); assay: Inhibition of EphA5 (unknown origin)
[7] = molecular target: Receptor-type tyrosine-protein kinase FLT3 (Homo sapiens, UniProt P36888); assay: Inhibition of FLT3 (unknown origin)
[8] = molecular target: Ephrin type-A receptor 2 (Homo sapiens, UniProt P29317); assay: Inhibition of EphA2 (unknown origin)
[9] = Half life in ICR mouse at 2.0 mg/kg, iv measured upto 24 hrs by LC-MS/MS analysis; format: ADME, organism-based; conditions: in vivo
[10] = Toxicity in CB17-SCID mouse assessed as effect on body weight loss at 50 mg/kg/day administered via oral gavage measured every 2 days for 12 days; format: organism-based; conditions: in vivo, 288 h, time 12 day
[11] = molecular target: Tyrosine-protein kinase HCK (Homo sapiens, UniProt P08631); assay: Inhibition of Hck (unknown origin)
[12] = Cmax in ICR mouse at 2.0 mg/kg, iv measured upto 24 hrs by LC-MS/MS analysis; format: ADME, organism-based; parameters: dose 2 mg/kg, time < 24 hrs, route iv; conditions: in vivo
[13] = Half life in ICR mouse at 10 mg/kg, po measured upto 24 hrs by LC-MS/MS analysis; format: ADME, organism-based; conditions: in vivo
[14] = Oral bioavailability in ICR mouse at 10 mg/kg measured upto 24 hrs by LC-MS/MS analysis; format: ADME, organism-based; conditions: in vivo
[15] = molecular target: Cyclin-dependent kinase 14 (Homo sapiens, UniProt O94921); assay: Inhibition of CDK14 (unknown origin)
[16] = Clearance in ICR mouse at 2.0 mg/kg, iv measured upto 24 hrs by LC-MS/MS analysis; format: ADME, organism-based; conditions: in vivo
[17] = molecular target: Angiopoietin-1 receptor (Homo sapiens, UniProt Q02763); assay: Inhibition of Tie2 (unknown origin)
[18] = Toxicity in CB17-SCID mouse assessed as mortality at 50 mg/kg/day administered via oral gavage measured every 2 days for 12 days; format: organism-based; conditions: in vivo, 288 h, time 12 day
[19] = Cmax in ICR mouse at 10 mg/kg, po measured upto 24 hrs by LC-MS/MS analysis; format: ADME, organism-based; parameters: dose 10 mg/kg, time < 24 hrs, route po; conditions: in vivo
[20] = molecular target: Tyrosine-protein kinase receptor UFO (Homo sapiens, UniProt P30530); assay: Inhibition of Axl (unknown origin)
[21] = molecular target: Tyrosine-protein kinase Mer (Homo sapiens, UniProt Q12866); assay: Inhibition of Mer (unknown origin)
[22] = Toxicity in CB17-SCID mouse assessed as drug tolerance at 50 mg/kg/day administered via oral gavage measured every 2 days for 12 days; format: organism-based; conditions: in vivo, 288 h, time 12 day
[23] = molecular target: Ribosomal protein S6 kinase; assay: Inhibition of P70S6K (unknown origin); format: protein assay, Homo sapiens
[24] = molecular target: Epithelial discoidin domain-containing receptor 1 (Homo sapiens, UniProt Q08345); assay: Inhibition of DDR1 (unknown origin)
[25] = Tmax in ICR mouse at 10 mg/kg, po measured upto 24 hrs by LC-MS/MS analysis; format: ADME, organism-based; conditions: in vivo
[26] = molecular target: Muscle, skeletal receptor tyrosine-protein kinase (Homo sapiens, UniProt O15146); assay: Inhibition of Musk (unknown origin)
[27] = molecular target: Vascular endothelial growth factor receptor 2 (Homo sapiens, UniProt P35968); assay: Inhibition of KDR (unknown origin)
[28] = AUC (0 to infinity) in ICR mouse at 2.0 mg/kg, iv measured upto 24 hrs by LC-MS/MS analysis; format: ADME, organism-based; parameters: dose 2 mg/kg, time < 24 hrs, route iv; conditions: in vivo
[29] = Tmax in ICR mouse at 2.0 mg/kg, iv measured upto 24 hrs by LC-MS/MS analysis; format: ADME, organism-based; conditions: in vivo
[30] = molecular target: Proto-oncogene tyrosine-protein kinase receptor Ret (Homo sapiens, UniProt P07949); assay: Inhibition of RET (unknown origin)

Sequence of Vascular endothelial growth factor receptor 2 (P35968 whole entry): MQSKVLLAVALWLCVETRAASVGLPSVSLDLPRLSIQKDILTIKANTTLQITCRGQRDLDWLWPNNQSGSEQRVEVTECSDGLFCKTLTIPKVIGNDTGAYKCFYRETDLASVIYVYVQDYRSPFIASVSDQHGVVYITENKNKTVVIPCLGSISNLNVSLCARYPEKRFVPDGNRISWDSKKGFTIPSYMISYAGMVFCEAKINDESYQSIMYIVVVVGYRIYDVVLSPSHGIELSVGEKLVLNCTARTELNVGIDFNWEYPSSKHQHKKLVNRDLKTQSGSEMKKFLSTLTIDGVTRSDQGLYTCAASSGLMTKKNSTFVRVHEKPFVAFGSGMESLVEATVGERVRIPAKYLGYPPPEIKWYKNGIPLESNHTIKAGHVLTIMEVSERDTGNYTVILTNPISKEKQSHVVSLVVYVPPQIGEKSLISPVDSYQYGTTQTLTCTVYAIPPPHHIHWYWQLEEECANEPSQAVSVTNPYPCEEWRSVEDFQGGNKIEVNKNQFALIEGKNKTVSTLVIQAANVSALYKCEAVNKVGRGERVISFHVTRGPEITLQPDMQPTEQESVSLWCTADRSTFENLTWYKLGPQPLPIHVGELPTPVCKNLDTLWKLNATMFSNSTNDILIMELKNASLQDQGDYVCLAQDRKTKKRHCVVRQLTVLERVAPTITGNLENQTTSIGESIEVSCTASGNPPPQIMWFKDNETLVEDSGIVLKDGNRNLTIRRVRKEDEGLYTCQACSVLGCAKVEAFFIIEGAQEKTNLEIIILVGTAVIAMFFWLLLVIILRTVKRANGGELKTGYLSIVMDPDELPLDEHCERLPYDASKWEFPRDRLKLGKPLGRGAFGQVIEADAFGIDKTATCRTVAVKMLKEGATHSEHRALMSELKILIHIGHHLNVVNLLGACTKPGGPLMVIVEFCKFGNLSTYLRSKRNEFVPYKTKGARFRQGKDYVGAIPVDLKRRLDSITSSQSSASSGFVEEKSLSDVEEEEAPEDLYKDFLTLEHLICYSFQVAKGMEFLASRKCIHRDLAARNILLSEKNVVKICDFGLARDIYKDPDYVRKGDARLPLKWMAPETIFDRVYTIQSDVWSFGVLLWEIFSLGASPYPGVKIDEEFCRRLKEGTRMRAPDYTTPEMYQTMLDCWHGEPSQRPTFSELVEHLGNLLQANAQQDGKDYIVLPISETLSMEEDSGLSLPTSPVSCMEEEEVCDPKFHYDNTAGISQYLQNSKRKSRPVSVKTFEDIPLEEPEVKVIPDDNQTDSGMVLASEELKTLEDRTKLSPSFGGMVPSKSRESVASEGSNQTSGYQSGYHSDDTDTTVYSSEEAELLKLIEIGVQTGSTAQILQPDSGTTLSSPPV
Sequence of Angiopoietin-1 receptor (Q02763 whole entry): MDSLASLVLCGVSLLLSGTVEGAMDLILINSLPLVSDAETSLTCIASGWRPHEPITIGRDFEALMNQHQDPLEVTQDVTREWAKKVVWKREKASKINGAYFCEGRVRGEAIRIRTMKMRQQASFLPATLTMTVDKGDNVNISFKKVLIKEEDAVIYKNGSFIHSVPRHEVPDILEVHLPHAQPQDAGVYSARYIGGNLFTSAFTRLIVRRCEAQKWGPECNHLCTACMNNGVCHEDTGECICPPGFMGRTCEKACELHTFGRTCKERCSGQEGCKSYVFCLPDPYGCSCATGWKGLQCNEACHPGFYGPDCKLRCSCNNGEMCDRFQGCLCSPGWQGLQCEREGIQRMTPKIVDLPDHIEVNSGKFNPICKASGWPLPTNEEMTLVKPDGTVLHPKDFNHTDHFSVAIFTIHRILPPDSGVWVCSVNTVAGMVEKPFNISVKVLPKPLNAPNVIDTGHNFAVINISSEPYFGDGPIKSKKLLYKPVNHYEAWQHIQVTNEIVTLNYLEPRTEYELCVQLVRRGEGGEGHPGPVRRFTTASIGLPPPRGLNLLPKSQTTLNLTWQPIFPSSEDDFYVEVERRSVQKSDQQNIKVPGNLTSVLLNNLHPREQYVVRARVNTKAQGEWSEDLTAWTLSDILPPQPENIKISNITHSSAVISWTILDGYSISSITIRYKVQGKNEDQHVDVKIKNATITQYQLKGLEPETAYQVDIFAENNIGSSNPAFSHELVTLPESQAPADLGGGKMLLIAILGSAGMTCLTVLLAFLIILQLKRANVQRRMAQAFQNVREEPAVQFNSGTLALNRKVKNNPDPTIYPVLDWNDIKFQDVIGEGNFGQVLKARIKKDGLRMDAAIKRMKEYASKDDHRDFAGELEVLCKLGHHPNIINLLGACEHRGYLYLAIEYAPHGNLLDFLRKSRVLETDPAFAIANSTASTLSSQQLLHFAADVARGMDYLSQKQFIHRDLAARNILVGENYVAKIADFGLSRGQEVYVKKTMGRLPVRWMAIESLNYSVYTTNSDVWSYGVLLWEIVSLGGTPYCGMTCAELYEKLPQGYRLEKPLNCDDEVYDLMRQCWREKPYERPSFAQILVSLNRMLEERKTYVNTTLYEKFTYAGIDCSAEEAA
Sequence of Tyrosine-protein kinase Mer (Q12866 whole entry): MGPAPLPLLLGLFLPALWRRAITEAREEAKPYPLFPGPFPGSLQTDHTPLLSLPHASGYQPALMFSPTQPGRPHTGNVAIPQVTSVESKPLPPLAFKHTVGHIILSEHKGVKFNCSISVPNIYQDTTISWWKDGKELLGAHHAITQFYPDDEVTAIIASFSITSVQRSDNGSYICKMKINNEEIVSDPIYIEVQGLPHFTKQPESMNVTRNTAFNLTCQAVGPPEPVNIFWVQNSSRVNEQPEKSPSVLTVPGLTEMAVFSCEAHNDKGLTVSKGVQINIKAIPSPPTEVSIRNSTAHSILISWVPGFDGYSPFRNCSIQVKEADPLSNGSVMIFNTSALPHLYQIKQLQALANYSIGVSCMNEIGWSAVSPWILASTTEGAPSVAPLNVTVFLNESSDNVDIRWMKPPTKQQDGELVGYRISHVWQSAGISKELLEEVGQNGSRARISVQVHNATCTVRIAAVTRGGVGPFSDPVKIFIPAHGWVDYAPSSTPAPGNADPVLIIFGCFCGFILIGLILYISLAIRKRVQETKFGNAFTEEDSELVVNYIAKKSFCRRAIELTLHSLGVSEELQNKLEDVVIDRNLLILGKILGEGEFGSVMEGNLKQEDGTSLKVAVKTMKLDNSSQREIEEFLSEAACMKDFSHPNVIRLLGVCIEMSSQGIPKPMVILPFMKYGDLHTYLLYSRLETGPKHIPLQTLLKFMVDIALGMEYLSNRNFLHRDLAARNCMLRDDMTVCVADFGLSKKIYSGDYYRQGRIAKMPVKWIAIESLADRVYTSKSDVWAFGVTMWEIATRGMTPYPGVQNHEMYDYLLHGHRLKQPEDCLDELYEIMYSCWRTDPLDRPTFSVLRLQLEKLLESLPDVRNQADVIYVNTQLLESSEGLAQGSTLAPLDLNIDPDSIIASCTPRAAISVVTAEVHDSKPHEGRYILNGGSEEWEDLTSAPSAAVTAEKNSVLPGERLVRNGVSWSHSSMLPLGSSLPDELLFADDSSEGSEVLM
Sequence of Epithelial discoidin domain-containing receptor 1 (Q08345 whole entry, the tested form may be a part): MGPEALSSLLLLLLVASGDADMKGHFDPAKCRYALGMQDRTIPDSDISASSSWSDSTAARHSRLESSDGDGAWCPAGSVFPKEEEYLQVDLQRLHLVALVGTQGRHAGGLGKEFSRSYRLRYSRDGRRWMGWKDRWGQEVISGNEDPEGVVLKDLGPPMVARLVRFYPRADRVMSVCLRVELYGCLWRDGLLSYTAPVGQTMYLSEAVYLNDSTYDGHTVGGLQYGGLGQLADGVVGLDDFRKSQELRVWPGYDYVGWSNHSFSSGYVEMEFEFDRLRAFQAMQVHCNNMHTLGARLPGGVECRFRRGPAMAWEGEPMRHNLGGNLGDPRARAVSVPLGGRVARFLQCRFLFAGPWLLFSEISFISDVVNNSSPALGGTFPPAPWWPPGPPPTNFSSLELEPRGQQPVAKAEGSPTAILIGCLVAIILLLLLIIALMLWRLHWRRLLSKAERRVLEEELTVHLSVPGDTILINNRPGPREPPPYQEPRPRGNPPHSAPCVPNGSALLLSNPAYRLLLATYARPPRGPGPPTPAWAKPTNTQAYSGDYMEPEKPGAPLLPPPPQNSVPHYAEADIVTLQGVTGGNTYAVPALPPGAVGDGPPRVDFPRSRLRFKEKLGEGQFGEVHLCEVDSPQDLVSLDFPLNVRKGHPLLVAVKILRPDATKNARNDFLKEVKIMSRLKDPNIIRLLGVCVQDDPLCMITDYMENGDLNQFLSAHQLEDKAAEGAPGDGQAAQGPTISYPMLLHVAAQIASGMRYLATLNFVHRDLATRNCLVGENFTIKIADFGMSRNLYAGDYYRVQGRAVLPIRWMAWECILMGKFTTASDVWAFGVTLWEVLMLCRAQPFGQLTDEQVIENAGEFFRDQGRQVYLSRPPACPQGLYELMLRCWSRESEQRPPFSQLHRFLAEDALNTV
Sequence of Tyrosine-protein kinase HCK (P08631 whole entry): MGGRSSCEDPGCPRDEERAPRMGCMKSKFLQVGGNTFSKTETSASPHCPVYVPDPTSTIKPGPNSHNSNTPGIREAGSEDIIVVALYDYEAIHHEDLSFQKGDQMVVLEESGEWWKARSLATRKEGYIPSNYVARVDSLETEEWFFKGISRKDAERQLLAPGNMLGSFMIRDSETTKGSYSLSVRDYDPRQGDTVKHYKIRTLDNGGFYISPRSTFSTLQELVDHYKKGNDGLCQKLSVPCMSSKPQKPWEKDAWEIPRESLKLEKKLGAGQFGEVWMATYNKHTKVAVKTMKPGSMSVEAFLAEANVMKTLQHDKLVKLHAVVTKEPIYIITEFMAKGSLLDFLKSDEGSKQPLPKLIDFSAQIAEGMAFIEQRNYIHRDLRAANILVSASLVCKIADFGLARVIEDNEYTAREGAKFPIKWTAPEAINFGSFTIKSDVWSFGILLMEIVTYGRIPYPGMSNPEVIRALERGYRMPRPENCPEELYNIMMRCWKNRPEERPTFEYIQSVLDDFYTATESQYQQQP

Cc1c2cc(cc1C(=O)Nc1cc(CN3CCN(C)CC3)cc(C3CC3)c1)OCCCCCCCNC(=O)c1ccc3ncc(n3n1)C#C2
AUC(0-t) at 24 h [1]: 501 ng·h/mL
pIC50 [2]: 8.75
pIC50 [3]: 7.23
AUC(0-inf) [4]: 707 ng·h/mL
AUC(0-t) at 24 h [5]: 1200 ng·h/mL
pIC50 [6]: 7.64
pIC50 [7]: 7.93
pIC50 [8]: 7.89
half-life [9]: 1.92 h
Activity [10]: Non-Toxic
pIC50 [11]: 6.60
Cmax [12]: 626 ng/mL
half-life [13]: 4.3 h
bioavailability [14]: 11%
pIC50 [15]: 6.81
clearance [16]: 26.7 mL/min/kg
pIC50 [17]: 7.18
Activity [18]: Non-Toxic
Cmax [19]: 95.2 ng/mL
pIC50 [20]: 5.81
pIC50 [21]: 7.59
Activity [22]: Non-Toxic
IC50 [23]: 66.82 nM
pIC50 [24]: 7.62
Tmax [25]: 2.17 h
pIC50 [26]: 7.89
pIC50 [27]: 7.13
AUC(0-inf) [28]: 1280 ng·h/mL
Tmax [29]: 4.8 min
pIC50 [30]: 8.13
